In US6906205B2, “Spiro and dispiro 1,2,4-trioxolane antimalarials” (Medicines for Malaria Venture MMV, priority 2002, dated 2005):
Converted amounts (≈) assume the structure as drawn.

System: ANKA strain of P. berghei
Experiment: single dose STI in vivo screen in infected mice
Design: species or system Plasmodium berghei
Conditions: percent reduction in parasitemia day 3 post-infection; single 10 mg/kg po in 3% ethanol and 7% Tween 80; mice
Method: In the single dose STI in vivo screen, Moro SPF or NMRI mice infected with the ANKA strain of P. berghei (groups of 3-5 mice) were treated on day one post-infection with trioxolanes dissolved or suspended in 3% ethanol and 7% Tween 80. […] SSV consists of 0.5% w/v CMC, 0.5% v/v benzyl alcohol, 0.4% v/v Tween 80, and 0.9% w/v sodium chloride in water. Antimalarial activity was measured by percent reduction in parasitemia on day three post-infection and survival times compared to an untreated control group. Survival to day 30 post-infection is considered to be a cure. […] Other factors influencing antimalarial activity include the stability of carbon radicals formed by β-scission subsequent to the initial electron transfer to the peroxide bond and the influence of steric effects remote from the peroxide bond on the interactions between carbon radicals and potential drug targets.

| Compound | Activity (%) po |
| --- | --- |
| COCC(=O)N(Cc1ccccc1)C1CCC2(CC1)OOC1(O2)C2CC3CC(C2)CC1C3 (centres unmarked) [OZ173] | 15% |
| O=S(=O)([O-])OC1CCC2(CC1)OOC1(O2)C2CC3CC(C2)CC1C3.[Na+] (centres unmarked) [OZ65] | 0% |
| CC(=O)OC1(c2ccc(F)cc2)CCC2(CC1)OOC1(O2)C2CC3CC(C2)CC1C3 (centres unmarked) [OZ69] | 56% |
| COC(=O)c1ccc(C[C@H]2CC[C@]3(CC2)OOC2(O3)C3CC4CC(C3)CC2C4)cc1 (some centres unmarked) [OZ204] | 0/0/0% |
| Fc1ccc(OC2CCC3(CC2)OOC2(O3)C3CC4CC(C3)CC2C4)cc1 (centres unmarked) [OZ193] | 99.75% |
| O=C(NCCO)[C@H]1CC[C@]2(CC1)OOC1(O2)C2CC3CC(C2)CC1C3 (some centres unmarked) [OZ155] | 53% |

Same assay, conditions: percent reduction in parasitemia day 3 post-infection; single 10 mg/kg sc in 3% ethanol and 7% Tween 80; mice

| Compound | Activity (%) sc |
| --- | --- |
| COCC(=O)N(Cc1ccccc1)C1CCC2(CC1)OOC1(O2)C2CC3CC(C2)CC1C3 (centres unmarked) [OZ173] | 80% |
| O=S(=O)([O-])OC1CCC2(CC1)OOC1(O2)C2CC3CC(C2)CC1C3.[Na+] (centres unmarked) [OZ65] | 1% |
| CC(=O)OC1(c2ccc(F)cc2)CCC2(CC1)OOC1(O2)C2CC3CC(C2)CC1C3 (centres unmarked) [OZ69] | 40% |
| COC(=O)c1ccc(C[C@H]2CC[C@]3(CC2)OOC2(O3)C3CC4CC(C3)CC2C4)cc1 (some centres unmarked) [OZ204] | 0/0/0% |
| Fc1ccc(OC2CCC3(CC2)OOC2(O3)C3CC4CC(C3)CC2C4)cc1 (centres unmarked) [OZ193] | 99.92% |
| O=C(NCCO)[C@H]1CC[C@]2(CC1)OOC1(O2)C2CC3CC(C2)CC1C3 (some centres unmarked) [OZ155] | 73% |

Same assay, conditions: percent reduction in parasitemia day 3 post-infection; single po dose in standard suspending vehicle (SSV); mice

| Compound | Activity (%) SSVpo |
| --- | --- |
| COCC(=O)N(Cc1ccccc1)C1CCC2(CC1)OOC1(O2)C2CC3CC(C2)CC1C3 (centres unmarked) [OZ173] | 0% |
| COC(=O)c1ccc(C[C@H]2CC[C@]3(CC2)OOC2(O3)C3CC4CC(C3)CC2C4)cc1 (some centres unmarked) [OZ204] | 0/0/0% |
| Fc1ccc(OC2CCC3(CC2)OOC2(O3)C3CC4CC(C3)CC2C4)cc1 (centres unmarked) [OZ193] | 93% |
| O=C(NCCO)[C@H]1CC[C@]2(CC1)OOC1(O2)C2CC3CC(C2)CC1C3 (some centres unmarked) [OZ155] | 53% |

Same assay, conditions: single 10 mg/kg po in 3% ethanol and 7% Tween 80; untreated control 5.6 ± 0.3

| Compound | Survival (days) po |
| --- | --- |
| COCC(=O)N(Cc1ccccc1)C1CCC2(CC1)OOC1(O2)C2CC3CC(C2)CC1C3 (centres unmarked) [OZ173] | 7.0 days |
| O=S(=O)([O-])OC1CCC2(CC1)OOC1(O2)C2CC3CC(C2)CC1C3.[Na+] (centres unmarked) [OZ65] | 5.0/NA/5.0 days |
| CC(=O)OC1(c2ccc(F)cc2)CCC2(CC1)OOC1(O2)C2CC3CC(C2)CC1C3 (centres unmarked) [OZ69] | 6.3/NA/6.3 days |
| COC(=O)c1ccc(C[C@H]2CC[C@]3(CC2)OOC2(O3)C3CC4CC(C3)CC2C4)cc1 (some centres unmarked) [OZ204] | 6.0 days |
| Fc1ccc(OC2CCC3(CC2)OOC2(O3)C3CC4CC(C3)CC2C4)cc1 (centres unmarked) [OZ193] | 9.3 days |
| O=C(NCCO)[C@H]1CC[C@]2(CC1)OOC1(O2)C2CC3CC(C2)CC1C3 (some centres unmarked) [OZ155] | 6.3 days |

Same assay, conditions: single 10 mg/kg sc in 3% ethanol and 7% Tween 80; untreated control 5.6 ± 0.3

| Compound | Survival (days) sc |
| --- | --- |
| COCC(=O)N(Cc1ccccc1)C1CCC2(CC1)OOC1(O2)C2CC3CC(C2)CC1C3 (centres unmarked) [OZ173] | 9.7 days |
| O=S(=O)([O-])OC1CCC2(CC1)OOC1(O2)C2CC3CC(C2)CC1C3.[Na+] (centres unmarked) [OZ65] | 5.0/NA/5.0 days |
| CC(=O)OC1(c2ccc(F)cc2)CCC2(CC1)OOC1(O2)C2CC3CC(C2)CC1C3 (centres unmarked) [OZ69] | 6.3/NA/6.3 days |
| COC(=O)c1ccc(C[C@H]2CC[C@]3(CC2)OOC2(O3)C3CC4CC(C3)CC2C4)cc1 (some centres unmarked) [OZ204] | 6.0 days |
| Fc1ccc(OC2CCC3(CC2)OOC2(O3)C3CC4CC(C3)CC2C4)cc1 (centres unmarked) [OZ193] | 11.0 days |
| O=C(NCCO)[C@H]1CC[C@]2(CC1)OOC1(O2)C2CC3CC(C2)CC1C3 (some centres unmarked) [OZ155] | 8.3 days |

Same assay, conditions: single po dose in SSV; untreated control 5.6 ± 0.3

| Compound | Survival (days) SSVpo [days] |
| --- | --- |
| COCC(=O)N(Cc1ccccc1)C1CCC2(CC1)OOC1(O2)C2CC3CC(C2)CC1C3 (centres unmarked) [OZ173] | 6.7 |
| COC(=O)c1ccc(C[C@H]2CC[C@]3(CC2)OOC2(O3)C3CC4CC(C3)CC2C4)cc1 (some centres unmarked) [OZ204] | 6.3 |
| Fc1ccc(OC2CCC3(CC2)OOC2(O3)C3CC4CC(C3)CC2C4)cc1 (centres unmarked) [OZ193] | 8.0 |
| O=C(NCCO)[C@H]1CC[C@]2(CC1)OOC1(O2)C2CC3CC(C2)CC1C3 (some centres unmarked) [OZ155] | 7.0 |

System: P. falciparum NF54 strain (sensitive to standard antimalarials)
Experiment: semiautomated microdilution assay, [3H]-hypoxanthine incorporation, NF54 strain
Type: cell-based, Plasmodium falciparum
Conditions: NF54 strain, 72 h incubation
Method: (§1) Various OZ compounds were tested by the semiautomated microdilution assay against intraerythrocytic forms of Plasmodium falciparum derived from asynchronous stock cultures.
(§2) Fifty percent inhibitory concentration (IC50) were estimated by Logit regression analysis.

| Compound | IC50 (ng/ml) NF54 |
| --- | --- |
| COCC(=O)N(Cc1ccccc1)C1CCC2(CC1)OOC1(O2)C2CC3CC(C2)CC1C3 (centres unmarked) [OZ173] | 32 ng/mL (≈ 0.0725 µM) |
| O=S(=O)([O-])OC1CCC2(CC1)OOC1(O2)C2CC3CC(C2)CC1C3.[Na+] (centres unmarked) [OZ65] | 65 ng/mL |
| CC(=O)OC1(c2ccc(F)cc2)CCC2(CC1)OOC1(O2)C2CC3CC(C2)CC1C3 (centres unmarked) [OZ69] | 1.4 ng/mL (≈ 0.00336 µM) |
| COC(=O)c1ccc(C[C@H]2CC[C@]3(CC2)OOC2(O3)C3CC4CC(C3)CC2C4)cc1 (some centres unmarked) [OZ204] | >10/>10 ng/ml |
| Fc1ccc(OC2CCC3(CC2)OOC2(O3)C3CC4CC(C3)CC2C4)cc1 (centres unmarked) [OZ193] | 8.3 ng/mL (≈ 0.0222 µM) |
| O=C(NCCO)[C@H]1CC[C@]2(CC1)OOC1(O2)C2CC3CC(C2)CC1C3 (some centres unmarked) [OZ155] | > 10 ng/mL |

System: P. falciparum K1 strain (Thailand resistant to chloroquine)
Experiment: semiautomated microdilution assay, [3H]-hypoxanthine incorporation, K1 strain
Type: cell-based, Plasmodium falciparum
Conditions: K1 strain, 72 h incubation
Method: as §1, §2

| Compound | IC50 (ng/ml) K1 |
| --- | --- |
| COCC(=O)N(Cc1ccccc1)C1CCC2(CC1)OOC1(O2)C2CC3CC(C2)CC1C3 (centres unmarked) [OZ173] | 58 ng/mL (≈ 0.131 µM) |
| O=S(=O)([O-])OC1CCC2(CC1)OOC1(O2)C2CC3CC(C2)CC1C3.[Na+] (centres unmarked) [OZ65] | 57 ng/mL |
| CC(=O)OC1(c2ccc(F)cc2)CCC2(CC1)OOC1(O2)C2CC3CC(C2)CC1C3 (centres unmarked) [OZ69] | 1.6 ng/mL (≈ 0.00384 µM) |
| COC(=O)c1ccc(C[C@H]2CC[C@]3(CC2)OOC2(O3)C3CC4CC(C3)CC2C4)cc1 (some centres unmarked) [OZ204] | >10/>10 ng/ml |
| Fc1ccc(OC2CCC3(CC2)OOC2(O3)C3CC4CC(C3)CC2C4)cc1 (centres unmarked) [OZ193] | 5.5 ng/mL (≈ 0.0147 µM) |
| O=C(NCCO)[C@H]1CC[C@]2(CC1)OOC1(O2)C2CC3CC(C2)CC1C3 (some centres unmarked) [OZ155] | 12 ng/mL (≈ 0.0341 µM) |
